Assay results reported in ChEMBL document CHEMBL5465560, “Selectivity Literature for EUbOPEN Chemogenomic Library” (2024).
Values belong to the compound of their own block, whether it stands above or below them.

Experiments:
[1] = biological target: Casein kinase II subunit alpha (Homo sapiens, UniProt P68400); assay: Selectivity interaction (Millipore kinase profiler) EUB0000124b CSNK2A1; settings: at 10 µM
[2] = biological target: T1, Serine/threonine-protein kinase TAO1 (Homo sapiens) (UniProt Q7L7X3); assay: Selectivity interaction (ActivX KiNativ screen (kinase selectivity in THP-1 cell lysates)) EUB0000639a TAOK1; assay type: subcellular; settings: lysate
T1 sequence (whole entry): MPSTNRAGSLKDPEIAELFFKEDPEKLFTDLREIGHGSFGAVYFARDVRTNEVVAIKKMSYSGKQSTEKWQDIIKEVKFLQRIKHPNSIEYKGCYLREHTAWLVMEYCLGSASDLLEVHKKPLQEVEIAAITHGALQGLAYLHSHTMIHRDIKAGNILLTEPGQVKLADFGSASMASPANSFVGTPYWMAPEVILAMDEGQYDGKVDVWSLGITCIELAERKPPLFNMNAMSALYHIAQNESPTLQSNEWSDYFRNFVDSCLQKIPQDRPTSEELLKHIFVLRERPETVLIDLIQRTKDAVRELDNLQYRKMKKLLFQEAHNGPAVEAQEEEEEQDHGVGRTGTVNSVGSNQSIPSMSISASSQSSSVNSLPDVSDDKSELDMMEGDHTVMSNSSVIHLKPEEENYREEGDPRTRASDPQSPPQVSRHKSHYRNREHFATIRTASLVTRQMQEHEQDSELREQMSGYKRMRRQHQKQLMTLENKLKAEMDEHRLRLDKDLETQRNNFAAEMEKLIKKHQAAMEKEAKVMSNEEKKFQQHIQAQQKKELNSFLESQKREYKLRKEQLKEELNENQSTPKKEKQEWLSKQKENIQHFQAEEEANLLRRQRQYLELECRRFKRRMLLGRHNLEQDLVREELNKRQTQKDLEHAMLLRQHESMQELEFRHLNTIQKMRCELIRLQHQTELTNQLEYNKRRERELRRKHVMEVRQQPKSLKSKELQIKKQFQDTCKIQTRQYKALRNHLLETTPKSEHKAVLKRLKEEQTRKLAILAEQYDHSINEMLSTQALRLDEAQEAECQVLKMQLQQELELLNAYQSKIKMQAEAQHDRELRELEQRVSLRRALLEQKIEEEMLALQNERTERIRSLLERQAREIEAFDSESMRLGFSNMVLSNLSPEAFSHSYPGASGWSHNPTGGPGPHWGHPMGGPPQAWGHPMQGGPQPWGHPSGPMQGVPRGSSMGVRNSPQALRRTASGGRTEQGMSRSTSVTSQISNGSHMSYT

[3] = biological target: Tyrosine-protein kinase CSK (Homo sapiens) (UniProt P41240); assay: Selectivity interaction (ActivX KiNativ screen (kinase selectivity in THP-1 cell lysates)) EUB0000639a CSK; assay type: subcellular; settings: lysate, at 0.2 µM
Tyrosine-protein kinase CSK (Homo sapiens), sequence (P41240 2-450 limits assumed): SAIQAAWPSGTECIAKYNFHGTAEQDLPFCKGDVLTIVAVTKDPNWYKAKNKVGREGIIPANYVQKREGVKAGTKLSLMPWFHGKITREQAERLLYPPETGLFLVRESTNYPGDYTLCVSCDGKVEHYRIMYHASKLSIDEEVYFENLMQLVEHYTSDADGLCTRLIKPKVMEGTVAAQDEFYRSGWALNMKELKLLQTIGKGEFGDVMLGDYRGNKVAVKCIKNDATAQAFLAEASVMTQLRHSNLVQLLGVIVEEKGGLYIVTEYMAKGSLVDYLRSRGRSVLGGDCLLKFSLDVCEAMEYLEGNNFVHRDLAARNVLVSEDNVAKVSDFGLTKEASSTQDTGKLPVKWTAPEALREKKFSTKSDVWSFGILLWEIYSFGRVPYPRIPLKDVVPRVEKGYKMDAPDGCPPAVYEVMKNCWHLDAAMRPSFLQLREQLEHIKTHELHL

[4] = biological target: Histone-lysine N-methyltransferase KMT5C (Homo sapiens) (UniProt Q86Y97); settings: at 1 µM
Histone-lysine N-methyltransferase KMT5C (Homo sapiens), sequence (Q86Y97 whole entry, looked up): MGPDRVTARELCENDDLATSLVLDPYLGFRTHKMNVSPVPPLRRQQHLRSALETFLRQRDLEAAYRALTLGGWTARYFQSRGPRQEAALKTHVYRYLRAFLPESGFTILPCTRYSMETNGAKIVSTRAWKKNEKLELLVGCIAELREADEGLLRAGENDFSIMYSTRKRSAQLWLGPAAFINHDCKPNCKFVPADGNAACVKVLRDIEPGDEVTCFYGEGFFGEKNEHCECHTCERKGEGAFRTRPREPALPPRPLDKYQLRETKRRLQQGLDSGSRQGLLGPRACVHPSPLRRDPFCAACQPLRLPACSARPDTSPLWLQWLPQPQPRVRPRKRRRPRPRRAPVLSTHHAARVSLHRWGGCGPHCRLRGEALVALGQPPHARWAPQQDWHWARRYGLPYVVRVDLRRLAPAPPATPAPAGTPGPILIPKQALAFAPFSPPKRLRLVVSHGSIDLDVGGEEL

[5] = biological target: Fibroblast growth factor receptor 2 (Homo sapiens) (UniProt P21802); assay: Selectivity interaction (KinomeScan (DiscoverX)) EUB0000595a FGFR2; settings: at 10 µM
Fibroblast growth factor receptor 2 (Homo sapiens), sequence (P21802 22-821 limits assumed): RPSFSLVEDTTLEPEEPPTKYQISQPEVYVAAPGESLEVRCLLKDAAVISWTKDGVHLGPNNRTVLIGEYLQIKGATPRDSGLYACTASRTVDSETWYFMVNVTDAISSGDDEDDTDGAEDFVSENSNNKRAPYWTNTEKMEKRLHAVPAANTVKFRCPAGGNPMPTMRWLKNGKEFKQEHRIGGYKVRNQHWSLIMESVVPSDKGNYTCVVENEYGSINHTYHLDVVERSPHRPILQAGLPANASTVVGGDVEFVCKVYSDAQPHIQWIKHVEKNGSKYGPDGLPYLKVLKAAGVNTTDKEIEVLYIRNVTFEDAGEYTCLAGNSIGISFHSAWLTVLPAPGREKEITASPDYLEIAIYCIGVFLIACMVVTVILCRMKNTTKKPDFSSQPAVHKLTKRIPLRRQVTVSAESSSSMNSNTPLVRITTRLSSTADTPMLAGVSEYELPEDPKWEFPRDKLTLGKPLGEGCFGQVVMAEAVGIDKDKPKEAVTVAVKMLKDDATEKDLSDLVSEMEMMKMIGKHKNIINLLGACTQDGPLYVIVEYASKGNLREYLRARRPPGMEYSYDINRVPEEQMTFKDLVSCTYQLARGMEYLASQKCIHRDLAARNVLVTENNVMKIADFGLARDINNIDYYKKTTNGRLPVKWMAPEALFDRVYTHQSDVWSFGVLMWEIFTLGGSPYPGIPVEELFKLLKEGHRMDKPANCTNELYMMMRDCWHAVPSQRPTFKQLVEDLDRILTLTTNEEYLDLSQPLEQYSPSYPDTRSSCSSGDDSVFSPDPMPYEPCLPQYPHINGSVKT

[6] = biological target: Phosphatidylinositol 4-phosphate 3-kinase C2 domain-containing subunit beta (Homo sapiens) (UniProt O00750); assay: Selectivity interaction (KinomeScan (DiscoverX)) EUB0001079a PIK3C2B; settings: at 1 µM
Phosphatidylinositol 4-phosphate 3-kinase C2 domain-containing subunit beta (Homo sapiens), sequence (O00750 whole entry, the tested form may be a part): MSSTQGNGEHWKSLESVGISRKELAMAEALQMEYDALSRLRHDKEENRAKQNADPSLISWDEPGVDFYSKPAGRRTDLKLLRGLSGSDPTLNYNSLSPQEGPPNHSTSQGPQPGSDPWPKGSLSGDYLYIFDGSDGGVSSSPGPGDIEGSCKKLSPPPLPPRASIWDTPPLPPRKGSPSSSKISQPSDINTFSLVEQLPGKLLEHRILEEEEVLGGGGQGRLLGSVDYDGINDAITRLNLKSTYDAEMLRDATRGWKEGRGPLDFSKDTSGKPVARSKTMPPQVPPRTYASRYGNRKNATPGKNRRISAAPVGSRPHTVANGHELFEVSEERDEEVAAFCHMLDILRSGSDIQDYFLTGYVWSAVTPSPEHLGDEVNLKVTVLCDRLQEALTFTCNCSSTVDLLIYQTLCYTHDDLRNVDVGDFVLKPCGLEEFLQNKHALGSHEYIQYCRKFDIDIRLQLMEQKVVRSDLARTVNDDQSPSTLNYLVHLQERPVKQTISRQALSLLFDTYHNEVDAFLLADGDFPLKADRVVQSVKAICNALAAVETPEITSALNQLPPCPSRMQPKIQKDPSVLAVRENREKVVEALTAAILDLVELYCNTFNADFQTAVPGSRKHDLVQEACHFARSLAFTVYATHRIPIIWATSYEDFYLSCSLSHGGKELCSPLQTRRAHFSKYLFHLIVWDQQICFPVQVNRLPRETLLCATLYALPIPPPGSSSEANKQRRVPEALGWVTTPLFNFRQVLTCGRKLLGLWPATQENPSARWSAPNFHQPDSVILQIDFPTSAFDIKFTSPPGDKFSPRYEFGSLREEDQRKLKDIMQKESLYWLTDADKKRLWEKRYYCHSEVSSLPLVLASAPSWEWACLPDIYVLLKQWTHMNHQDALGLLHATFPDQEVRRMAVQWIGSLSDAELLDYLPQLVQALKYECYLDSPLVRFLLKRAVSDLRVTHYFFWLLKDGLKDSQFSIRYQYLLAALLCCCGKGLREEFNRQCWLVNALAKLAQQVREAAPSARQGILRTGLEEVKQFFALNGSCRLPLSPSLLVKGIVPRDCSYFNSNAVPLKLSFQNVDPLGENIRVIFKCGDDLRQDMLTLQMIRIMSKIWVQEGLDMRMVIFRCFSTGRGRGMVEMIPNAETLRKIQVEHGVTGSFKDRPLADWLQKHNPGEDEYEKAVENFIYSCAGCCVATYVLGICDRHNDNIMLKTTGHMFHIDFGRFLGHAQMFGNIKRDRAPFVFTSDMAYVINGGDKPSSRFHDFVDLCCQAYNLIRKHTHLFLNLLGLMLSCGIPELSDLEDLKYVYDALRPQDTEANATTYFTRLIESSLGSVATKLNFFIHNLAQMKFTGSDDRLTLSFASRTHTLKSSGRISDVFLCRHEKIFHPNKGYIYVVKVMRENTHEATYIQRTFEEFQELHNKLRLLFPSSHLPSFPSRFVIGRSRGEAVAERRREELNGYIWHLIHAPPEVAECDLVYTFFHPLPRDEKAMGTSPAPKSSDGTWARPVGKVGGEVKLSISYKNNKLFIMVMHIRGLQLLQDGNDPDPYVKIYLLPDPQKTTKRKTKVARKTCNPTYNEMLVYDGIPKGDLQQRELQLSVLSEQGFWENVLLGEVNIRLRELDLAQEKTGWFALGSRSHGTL

[7] = biological target: 5-hydroxytryptamine receptor 1D (Homo sapiens) (UniProt P28221); assay: Selectivity interaction (GPCR panel (PDSP screen)) EUB0001079a HTR1D; settings: at 10 µM
5-hydroxytryptamine receptor 1D (Homo sapiens), sequence (P28221 whole entry): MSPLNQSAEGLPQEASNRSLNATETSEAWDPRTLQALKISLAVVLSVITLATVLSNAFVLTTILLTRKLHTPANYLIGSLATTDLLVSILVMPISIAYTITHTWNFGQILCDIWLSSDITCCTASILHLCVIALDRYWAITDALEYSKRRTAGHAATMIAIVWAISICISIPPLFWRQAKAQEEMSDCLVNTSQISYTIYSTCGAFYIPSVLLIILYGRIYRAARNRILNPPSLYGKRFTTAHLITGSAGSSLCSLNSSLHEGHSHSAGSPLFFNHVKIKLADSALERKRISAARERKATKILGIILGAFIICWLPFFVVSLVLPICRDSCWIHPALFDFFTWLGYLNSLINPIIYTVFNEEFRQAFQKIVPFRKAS

[8] = biological target: Serine/threonine-protein kinase Nek4 (Homo sapiens) (UniProt P51957); assay: Selectivity interaction (KinomeScan (DiscoverX)) EUB0000092b NEK4; settings: at 10 µM
[9] = biological target: T2, Phosphatidylinositol 4,5-bisphosphate 3-kinase catalytic subunit delta isoform (Homo sapiens) (UniProt O00329); assay: Selectivity interaction (KinomeScan (DiscoverX)) EUB0000092b PIK3CD; settings: at 10 µM
T2 sequence (whole entry): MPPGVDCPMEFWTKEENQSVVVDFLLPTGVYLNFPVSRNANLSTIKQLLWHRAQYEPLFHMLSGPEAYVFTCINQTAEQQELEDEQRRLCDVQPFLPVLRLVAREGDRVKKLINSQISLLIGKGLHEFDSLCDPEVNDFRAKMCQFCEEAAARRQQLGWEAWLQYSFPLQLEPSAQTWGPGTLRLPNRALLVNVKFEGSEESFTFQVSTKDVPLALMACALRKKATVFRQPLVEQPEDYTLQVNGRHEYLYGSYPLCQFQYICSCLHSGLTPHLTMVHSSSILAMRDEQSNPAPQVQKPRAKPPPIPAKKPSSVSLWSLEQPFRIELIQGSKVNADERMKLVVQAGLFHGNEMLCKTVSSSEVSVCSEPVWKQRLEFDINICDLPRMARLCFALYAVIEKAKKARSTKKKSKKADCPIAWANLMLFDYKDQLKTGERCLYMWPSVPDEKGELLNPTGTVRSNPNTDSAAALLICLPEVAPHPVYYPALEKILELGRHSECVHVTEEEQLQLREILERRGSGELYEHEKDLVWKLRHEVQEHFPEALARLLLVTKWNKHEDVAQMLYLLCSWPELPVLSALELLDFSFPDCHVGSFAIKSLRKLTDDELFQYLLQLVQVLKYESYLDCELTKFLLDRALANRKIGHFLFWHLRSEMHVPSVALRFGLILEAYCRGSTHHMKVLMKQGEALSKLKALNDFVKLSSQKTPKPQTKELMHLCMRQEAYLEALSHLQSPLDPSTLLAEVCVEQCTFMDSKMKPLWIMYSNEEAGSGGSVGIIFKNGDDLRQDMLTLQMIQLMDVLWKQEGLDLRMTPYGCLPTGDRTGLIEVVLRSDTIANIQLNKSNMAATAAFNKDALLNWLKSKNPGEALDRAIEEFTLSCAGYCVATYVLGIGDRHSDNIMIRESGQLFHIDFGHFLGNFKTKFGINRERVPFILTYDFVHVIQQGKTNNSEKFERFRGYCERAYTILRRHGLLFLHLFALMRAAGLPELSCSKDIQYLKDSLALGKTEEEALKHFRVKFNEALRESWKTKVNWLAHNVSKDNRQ

[10] = Selectivity interaction (KinomeScan (DiscoverX)) EUB0001619a CDK2H; settings: at 1 µM
[11] = biological target: Receptor tyrosine-protein kinase erbB-4 (Homo sapiens, UniProt Q15303); assay: Selectivity interaction (KinomeScan (DiscoverX)) EUB0001619a ERBB4; settings: at 1 µM
Receptor tyrosine-protein kinase erbB-4, sequence (Q15303 whole entry): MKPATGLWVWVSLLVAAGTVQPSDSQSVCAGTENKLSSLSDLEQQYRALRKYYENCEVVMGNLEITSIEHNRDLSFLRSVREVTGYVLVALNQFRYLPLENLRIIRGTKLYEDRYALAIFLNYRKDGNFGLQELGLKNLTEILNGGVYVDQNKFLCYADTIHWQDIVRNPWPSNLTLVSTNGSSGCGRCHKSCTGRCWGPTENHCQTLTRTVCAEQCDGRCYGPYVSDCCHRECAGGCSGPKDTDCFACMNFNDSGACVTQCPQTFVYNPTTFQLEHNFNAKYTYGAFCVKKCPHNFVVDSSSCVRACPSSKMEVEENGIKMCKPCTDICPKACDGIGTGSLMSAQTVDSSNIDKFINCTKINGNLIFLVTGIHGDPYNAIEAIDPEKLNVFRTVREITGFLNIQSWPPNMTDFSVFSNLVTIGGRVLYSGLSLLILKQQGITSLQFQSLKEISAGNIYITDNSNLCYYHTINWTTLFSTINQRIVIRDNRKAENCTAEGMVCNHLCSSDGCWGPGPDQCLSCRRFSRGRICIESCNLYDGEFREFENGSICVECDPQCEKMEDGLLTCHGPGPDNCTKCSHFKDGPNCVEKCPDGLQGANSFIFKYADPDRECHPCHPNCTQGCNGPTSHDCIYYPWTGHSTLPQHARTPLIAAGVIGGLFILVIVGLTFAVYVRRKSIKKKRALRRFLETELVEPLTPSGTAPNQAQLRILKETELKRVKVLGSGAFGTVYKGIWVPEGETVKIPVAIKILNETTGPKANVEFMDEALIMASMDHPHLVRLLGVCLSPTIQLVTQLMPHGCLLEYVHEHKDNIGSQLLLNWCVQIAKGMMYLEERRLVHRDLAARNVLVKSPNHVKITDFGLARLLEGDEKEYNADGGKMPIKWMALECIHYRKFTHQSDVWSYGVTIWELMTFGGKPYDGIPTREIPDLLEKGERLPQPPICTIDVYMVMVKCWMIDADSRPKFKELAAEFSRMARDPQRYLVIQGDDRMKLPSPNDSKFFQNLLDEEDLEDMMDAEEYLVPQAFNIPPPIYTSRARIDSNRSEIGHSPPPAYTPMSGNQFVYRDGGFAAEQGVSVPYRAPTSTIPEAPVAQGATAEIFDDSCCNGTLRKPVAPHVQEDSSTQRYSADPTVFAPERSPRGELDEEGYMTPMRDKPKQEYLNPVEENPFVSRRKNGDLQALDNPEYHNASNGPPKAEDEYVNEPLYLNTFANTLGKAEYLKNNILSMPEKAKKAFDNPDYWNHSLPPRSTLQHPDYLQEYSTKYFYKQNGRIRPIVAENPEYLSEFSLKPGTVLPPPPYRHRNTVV

% of control [1]: 101%
Structure (SMILES): CC(=O)Nc1cccc(-n2c(=O)n(C3CC3)c(=O)c3c(Nc4ccc(I)cc4F)n(C)c(=O)c(C)c32)c1

% of inhibition ([2]; at 0.01 µM): 6.6%
% of inhibition ([2]; at 0.04 µM): -1.6%
% of inhibition ([2]; at 0.2 µM): 6.9%
% of inhibition ([2]; at 1 µM): 12.9%
% of inhibition ([2]; at 5 µM): 41.7%
% of inhibition [3]: -6.8%
Structure (SMILES): CC[C@@H]1[C@H](F)C(=O)N[C@@H]1COc1nccc2cc(C(N)=O)c(OC)cc12 [ZIMLOVISERTIB]

% activity [4]: > 90%
Structure (SMILES): CNCCN1CCC(c2cc(CN(C)C(=O)c3cccc(Oc4ccccc4)c3)ccn2)CC1

Structure (SMILES): COCC(=O)NC/C=C/c1ccc2ncnc(Nc3ccc(Oc4ccc(C)nc4)c(C)c3)c2c1 [CP-724714]
% of control [5]: 100%

Structure (SMILES): Nc1cnc(N2CCc3cc(S(=O)(=O)Nc4c(F)cc(Cl)cc4F)cc(N4CCCC4=O)c32)nc1 [TP-020n]
% of control [6]: 83%
% of inhibition [7]: 9.24%

Structure (SMILES): CCC(=O)N1CCN(c2ccc(-n3c(=O)ccc4cnc5ccc(-c6cnc7ccccc7c6)cc5c43)cc2C(F)(F)F)CC1
% of control [8]: 86%
% of control [9]: 51%

Structure (SMILES): N#Cc1cccc(-c2c[nH]c3ncnc(N4CCOCC4)c23)c1
% of control [10]: 100%
% of control [11]: 100%
